{"source": "patent US10662409B2", "about": "“Methods of generating neural stem cells” (Trustees of Tufts College, priority 2015, dated 2020)", "molecules": {"B1": {"name": "FGF8: fibroblast growth factor 8 (Peprotech) added to culture media (protein, UniProt P55075 23-233, looked up)", "Fibroblast growth factor 8": "QEGPGRGPALGRELASLFRAGREPQGVSQQHVREQSLVTDQLSRRLIRTYQLYSRTSGKHVQVLANKRINAMAEDGDPFAKLIVETDTFGSRVRVRGAETGLYICMNKKGKLIAKSNGKGKDCVFTEIVLENNYTALQNAKYEGWYMAFTRKGRPRKGSKTRQHQREVHFMKRLPRGHHTTEQSLRFEFLNYPPFTRSLRGSQRTWAPEPR"}}, "type_in_all_cases": "cell-based, human", "key": {"GABA receptors": {"test_system": "GABA receptors", "assay": "Electrophysiology of 1-week hiNSC cultures, functionality of GABA receptors", "conditions": "hiNSCs cultured for one week", "protocol": "hiNSCs were grown on poly-L-lysine coated coverslips (Corning) in neurobasal media supplemented with 2% B27 (Invitrogen), 1% Glutamax, and 1% antibiotic-antimycotic for 1-8 weeks. Recordings were performed at 34° C. For whole-cell patch clamp experiments, pipettes contained saline (in mM): 130 K-gluconate, 10 KCl, 0.1 CaCl2, 2 Mg-ATP, 1.1 EGTA, and 10 HEPES, pH 7.4 KOH. Bath saline contained the following (in mM): 140 NaCl, 2.5 KCl, 2.5 CaCl2, 1.2 MgCl2, 10 HEPES, and 11 glucose, pH 7.4 NaOH.\nTo determine the functionality of GABA receptors, 1-week hiNSC cultures were assessed via known electrophsysiology methods (e.g., voltage ramp) in order to determine the response of neurons resulting from provided hiNSCs both in the presence of muscimol and in its absence."}, "hiNSCs [1]": {"test_system": "hiNSCs", "assay": "Differentiation of dissociated hiNSCs with retinoic acid added to basal media (immunostaining)", "conditions": "retinoic acid 10-100 μM", "protocol": "(§1) To encourage spontaneous differentiation, hiNSC colonies were enzymatically removed from MEF feeder layers using TrypLE (Invitrogen), then dissociated as much as possible by manually pipetting. This cell suspension was sometimes further separated into a single cell suspension using a […] cell strainer to remove larger clumps. Dissociated hiNSCs were plated and cultured on multiple substrates including CELLstart (Invitrogen), laminin (Roche) or gelatin in hiNSC basal media without bFGF or in neurobasal media supplemented with 2% B27 (Invitrogen), 1% Glutamax, and 1% antibiotic-antimycotic. hiNSC cells began to show differentiation into BIII-tubulin (TUJ1)-positive immature neurons with visible neurite extensions in as little as 4 days. After two weeks in basal media, hiNSC cells spontaneously differentiated into more mature neuronal and glial subtypes. Adding various amounts of retinoic acid (10-100 μM) caused cells to differentiate into more mature neuronal phenotypes in a shorter amount of time (˜8 days). […] For guided differentiation, Shh (500 ng/ml, Peprotech), FGF8 (500 ng/ml, Peprotech), and RA (R&D) at concentrations between 10-100 μM were used to facilitate neuronal and glial differentiation within shorter culture periods (˜7-8 days). For differentiation studies in undefined media, DMEM supplemented with 10% FBS and 1% antibiotic-antimycotic was used. […]"}, "[2]": {"test_system": "inhibitory GABA receptors", "assay": "Live Fluo-4AM calcium imaging of hiNSC cultures", "conditions": "two-week cultures; 200 μM picrotoxin just before imaging", "protocol": "Cells plated onto coverslips or on 3D scaffolds were immersed in extracellular solution (NaCl 140 mM, KCl 2.8 mM, CaCl2 2 mM, MgCl2 2 mM, HEPES 10 mM, glucose 10 mM, pH=7.4, adjusted with NaOH). Fluo-4 (Invitrogen) calcium sensitive dye was mixed 1:1 with 20% Pluronic F127 (Invitrogen). Next, Fluo-4 was diluted to a final concentration of 1 μM in the extracellular buffer and pre-warmed to 37° C. The Fluo-4 1 μM solution was applied to cells and incubated at 37° C. for 1 hour. Upon incubation, cells were washed with the extracellular buffer to remove any unreacted dye. Cells were imaged using Olympus MVX10 macroscope (12.6× magnification) and Hamamatsu ORCA-Flash4.0 camera. The images were taken with the following setup: 15 ms exposure, 60 ms frame frequency, 512×512 pixel, 4×4 binning, […] over 3 minutes at room temperature. Some samples were treated with 200 μM picrotoxin (Sigma-Aldrich) just before imaging. The movie was created using ImageJ software (NIH)."}, "hiNSCs [3]": {"test_system": "hiNSCs", "assay": "Guided differentiation of hiNSCs into neuronal subtypes with growth factors in Neurobasal media (HB9 / TH immunostaining)", "conditions": "added to Neurobasal media; one week in culture; FGF8 500 ng/ml, Shh 500 ng/ml", "protocol": "as §1"}}, "data": [{"molecule": "NCc1cc(=O)[nH]o1", "note": "[muscimol]", "values": [{"measurement": "membrane potential response of hiNSCs to GABA agonist", "setting": "GABA receptors", "value": "depolarizing response"}]}, {"molecule": "CC1=C(/C=C/C(C)=C/C=C/C(C)=C/C(=O)O)C(C)(C)CCC1", "note": "[retinoic acid]", "values": [{"measurement": "time to differentiate into more mature neuronal phenotypes", "setting": "hiNSCs [1]", "value": "~8", "unit": "days"}]}, {"molecule": "picrotoxin", "values": [{"measurement": "spontaneous calcium signaling in response to GABA receptor blocker", "setting": "[2]", "value": "significantly activated"}]}, {"molecule": "B1", "values": [{"measurement": "staining of tyrosine hydroxylase (TH, marker of dopaminergic neurons)", "setting": "hiNSCs [3]", "value": "increase"}]}]}
